Data: patent US20240382510A1, “NEW COMBINATION DRUG FOR TREATING CORONAVIRUS INFECTIONS, PHARMACEUTICAL COMPOSITION AND USE THEREOF” (priority 2021, published 2024)
Like-named read-outs stand apart in the source and are kept apart here.

Columns and labels:
[1] = rats
Protocol: Among them, group 4 was converted according to the clinical administration of 3 tablets, and the remaining experimental groups were converted according to the clinical administration of 4 tablets.
A single dose was administered to healthy SD rats, and blood was taken according to the blood collection plan. After sample processing, analysis, and data processing, the plasma concentration-time curves of each group were drawn respectively. The pharmacokinetic parameters of each group of medicines in rats was calculate by WinNonlin 6.1 software.

in vivo = type: in vitro ADME; details: plasma
Excerpt: In addition, due to the high plasma protein binding rate of atovaquone and nitazoxanide, both about 99% (refer to Beerahee M Clinical pharmacology of atovaquone and proguanil hydrochloride. [J]. Journal of Travel Medicine, 1999, 6 suppl 1:S13-7.; Alinia™ PRESCRIBING INFORMATION-FDA.). The present application also studied and compared the in vivo plasma protein binding rate of atovaquone and nitazoxanide combined administration and separate administration. […] Compared with alone administration, combined administration will not affect the distribution and elimination of the two drugs in vivo, and competition for plasma protein binding site by one drug will not result in an increase in the free form of another drug.

[2] = system: SARS-CoV-2 (hCoV-19/China/CAS-B001/2020); assay: Synergistic anti-SARS-CoV-2 activity (Example 4), CPE in Vero-E6 cells; type: cell-based; details: Severe acute respiratory syndrome coronavirus 2, Vero C1008; wild strain hCoV-19/China/CAS-B001/2020, Vero-E6, CPE after 72 hours
[3] = literature (Beerahee 1999; Alinia prescribing information); cited from earlier work
SARS-CoV-2 = details: anti-SARS-CoV-2, literature values; cited from earlier work
[4] = literature values; cited from earlier work
[5] = atovaquone combined with nitazoxanide, read-out: average plasma protein binding rate, combined administration group (converted)
[6] = separate administration, read-out: average plasma protein binding rate, separate administration group (converted)

| Compound | plasma concentration administered alone vs in combination at the same dose ([1]; single dose 46.6 mg/kg, group 1 vs group 5) | fraction unbound (in vivo; [5]) | fraction unbound (in vivo; [6]) | EC50 [2] [nM] | plasma protein binding rate [3] | EC50 (SARS-CoV-2) [nM] | Plasma concentration [4] [nM] | exposure level (AUC0-24h) administered alone compared with combination at the same dose ([1]; single dose) | plasma concentration trend at 16-24 hours, administered alone ([1]; single dose) | plasma concentration trend at 16-24 hours, combined administration ([1]; single dose) | plasma concentration administered alone vs in combination, within 0.5-4 hours after administration ([1]; 13.9 mg/kg, group 3 vs group 5 and group 4) |
| --- | --- | --- | --- | --- | --- | --- | --- | --- | --- | --- | --- |
| CC(=O)Oc1ccccc1C(=O)Nc1ncc([N+](=O)[O-])s1 [NTZ, o-[N-(5-nitro-1,3-thiazol-2-yl)carbamoyl]phenol acetate] | no obvious difference | 0.0016 | 0.0105 | 4900 | about 99% | – | – | – | – | – | – |
| CC(C)C(=O)OC[C@H]1O[C@@H](n2ccc(NO)nc2=O)[C@H](O)[C@@H]1O [Molnupiravir] | – | – | – | – | – | 320 to 2030 | 2090 | – | – | – | – |
| O=C1C(O)=C([C@H]2CC[C@H](c3ccc(Cl)cc3)CC2)C(=O)c2ccccc21 [ATQ, 2-(trans-4-(4-chlorophenyl)cyclohexyl)-3-hydroxy-1,4-naphthalenedione] | – | 0.0014 | 0.0016 | 2040 | about 99% | – | – | similar | downward trend | flat or rising trend | – |
| NC(=O)c1ncn([C@@H]2O[C@H](CO)[C@@H](O)[C@H]2O)n1 [RBV, 1-[(2R,3R,4S,5R)-3,4-dihydroxy-5-(hydroxymethyl)Oxolane-2-yl]-1H-1,2,4-triazole-3-carboxamide] | – | – | – | – | – | – | – | slightly greater | – | – | greater |
